Consider 23 molecules from ChEMBL document CHEMBL3797191, “Isocoumarins, miraculous natural products blessed with diverse pharmacological activities” (Eur J Med Chem, 2016).

For series [1], the system named is Rattus norvegicus. Put plainly: Anti-ulcer activity in Sprague-Dawley rat stomach assessed as protection against stress-induced gastric ulcer at 25 mg/kg, po pretreated for 30 mins followed by stress measured after 6 hrs relative to control. The format is functional.
Series [2] concerns Tobacco mosaic virus. The series can be described thus: Antiviral activity against TMV infected in Nicotiana glutinosa leaves assessed as inhibition of lesions at 20 uM pretreated for 30 mins followed by viral infection measured after 3 to 4 days by half-leaf method relative to control. Format: functional.
A short description of series [3]: Cytotoxicity against human NB4 cells assessed as reduction in cell viability after 48 hrs by MTT assay. To be noted: NB-4, 48 h. Format: functional, cell-based. (Tetrazolium assays rely on reduction of a dye to a coloured formazan, in cell work by metabolically active cells.)
Series [4] deals with A549. Put plainly: Cytotoxicity against human A549 cells assessed as reduction in cell viability after 48 hrs by MTT assay. The format is functional, cell-based. To be noted: A549, 48 h.
The subject of series [5] is SH-SY5Y. Put plainly: Cytotoxicity against human SH-SY5Y cells assessed as reduction in cell viability after 48 hrs by MTT assay. Format: functional, cell-based.
Series [6] can be described thus: Cytotoxicity against human PC3 cells assessed as reduction in cell viability after 48 hrs by MTT assay. Format: functional, cell-based. To be noted: PC-3, 48 h.
Series [7] concerns MCF7. The series can be described thus: Cytotoxicity against human MCF7 cells assessed as reduction in cell viability after 48 hrs by MTT assay. To be noted: MCF7, 48 h. The format is functional, cell-based.
Series [8] has as its system HepG2. Put plainly: Cytotoxicity against human HepG2 cells. The format is functional, cell-based.
The subject of series [9] is MCF7. The series can be described thus: Cytotoxicity against human MCF7 cells. The format is functional, cell-based.
Series [10] relates to Echinochloa frumentacea. The series can be described thus: Growth inhibition of Barnyard millet seeds at 50 uM after 5 days relative to control. The format is functional. The following applies: 120 h, read-out: GI.
For series [11], the system named is Tobacco mosaic virus. Put plainly: Antiviral activity against TMV assessed as inhibition of viral infection at 20 uM by half-leaf method relative to control. Format: functional.
Series [12] addresses T1, Aromatase (Homo sapiens, UniProt P11511).
T1 sequence (P11511 whole entry): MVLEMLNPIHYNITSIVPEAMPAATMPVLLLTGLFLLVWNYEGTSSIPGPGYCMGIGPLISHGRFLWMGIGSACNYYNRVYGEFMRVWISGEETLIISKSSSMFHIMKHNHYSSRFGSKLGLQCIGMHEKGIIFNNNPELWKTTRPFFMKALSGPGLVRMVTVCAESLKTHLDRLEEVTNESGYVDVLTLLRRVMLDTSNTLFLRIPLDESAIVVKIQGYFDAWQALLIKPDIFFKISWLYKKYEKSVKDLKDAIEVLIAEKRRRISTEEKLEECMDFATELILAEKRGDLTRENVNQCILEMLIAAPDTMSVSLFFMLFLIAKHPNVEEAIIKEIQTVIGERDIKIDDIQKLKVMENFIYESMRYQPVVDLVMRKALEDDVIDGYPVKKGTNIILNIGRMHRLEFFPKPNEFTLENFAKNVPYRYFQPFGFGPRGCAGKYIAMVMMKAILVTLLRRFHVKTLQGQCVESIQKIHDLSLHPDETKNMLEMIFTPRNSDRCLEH
The series can be described thus: Inhibition of aromatase (unknown origin).

Series [13] is described as follows: Antioxidant activity assessed as radical scavenging activity. Format: physicochemical.
The target of series [14] is T2, Kallikrein-5 (Homo sapiens, UniProt Q9Y337).
T2 sequence (Q9Y337 whole entry): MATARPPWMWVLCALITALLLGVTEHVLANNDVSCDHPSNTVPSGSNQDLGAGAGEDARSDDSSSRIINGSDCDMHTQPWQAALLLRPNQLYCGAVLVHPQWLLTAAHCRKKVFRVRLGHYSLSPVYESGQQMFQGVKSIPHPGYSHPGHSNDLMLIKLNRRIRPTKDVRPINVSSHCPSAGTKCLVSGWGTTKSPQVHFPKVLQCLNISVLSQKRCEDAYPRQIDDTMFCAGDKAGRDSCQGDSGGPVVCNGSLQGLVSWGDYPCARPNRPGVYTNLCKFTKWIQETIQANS
The series can be described thus: Competitive inhibition of human kallikrein-5.

A short description of series [15]: Therapeutic ratio of LC50 to EC50 for Balanus amphitritea. The following applies: amphibalanus amphitrite; read-out: TI. The format is ADME.
For series [16], the system named is MCF7. The series can be described thus: Cytotoxicity against human MCF7 cells assessed as reduction in cell viability after 3 days by MTT assay. To be noted: MCF7, 72 h. Format: functional, cell-based.
Series [17] concerns A549. Put plainly: Cytotoxicity against human A549 cells assessed as reduction in cell viability after 3 days by MTT assay. Format: functional, cell-based. The following applies: A549, 72 h.
Series [18] relates to KB. The series can be described thus: Cytotoxicity against human KB cells assessed as reduction in cell viability by resazurin microplate assay. The format is functional, cell-based. Background: Resazurin is reduced to fluorescent resorufin, in cell work by metabolically active cells.
Series [19] relates to NCI-H187. Put plainly: Cytotoxicity against human NCI-H187 cells assessed as reduction in cell viability by resazurin microplate assay. The format is functional, cell-based.
Series [20] relates to KB. Put plainly: Cytotoxicity against human KB cells. Format: functional, cell-based.
For series [21], the system named is NCI-H187. Put plainly: Cytotoxicity against human NCI-H187 cells. The format is functional, cell-based.
In series [22] the target is Kallikrein-7 (Homo sapiens, UniProt P49862). The series can be described thus: Competitive inhibition of human kallikrein-7.
The subject of series [23] is P388. Put plainly: Cytotoxicity against mouse P388 cells. The format is functional, cell-based.
The test system of series [24] is Staphylococcus aureus. The series can be described thus: Antibacterial activity against Staphylococcus aureus. The format is functional.

Values after ≈ are worked out from the molar mass of the structure shown.

For orientation: inhibition means the relative decrease from the control value, in per cent. As a reminder, the IC50 is the concentration needed to halve the response being measured. In general, Ki refers to the dissociation constant of the complex between target and ligand, obtained from inhibition or displacement. As usually defined, the MIC is the smallest concentration in the dilution series that meets the test's criterion for growth inhibition. The low end stands for inhibition by little substance, the high end for a need for much substance.

Kallikrein-7, sequence (P49862 whole entry): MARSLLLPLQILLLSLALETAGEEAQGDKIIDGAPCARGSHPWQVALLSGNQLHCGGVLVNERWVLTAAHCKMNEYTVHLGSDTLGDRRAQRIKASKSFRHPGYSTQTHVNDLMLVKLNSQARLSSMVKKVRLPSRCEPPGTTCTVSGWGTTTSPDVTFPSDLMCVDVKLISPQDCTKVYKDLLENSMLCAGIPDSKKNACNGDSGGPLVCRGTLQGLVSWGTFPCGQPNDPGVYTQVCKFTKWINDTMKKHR

`CC(C)C[C@H](NC(=O)[C@@H](O)[C@@H](O)[C@@H](N)CC(N)=O)[C@@H]1Cc2cccc(O)c2C(=O)O1`: in [1], the Activity was 72%.
With `COc1ccc(CCCO)c2cc(CC(C)=O)oc(=O)c12`, the inhibition at 20 µM in series [2] was 30.6%. The IC50 in series [3], in series [4], in series [5], in [6] and in series [7] was 2.8 µM throughout.
Regarding `C[C@@H]1Cc2cc(O)c(C=O)c(O)c2C(=O)O1`, the IC50 in [8] came to 6.41 µM; in series [9] it was 6.67 µM.
For `CC(C)C[C@H](NC(=O)C[C@@H](O)[C@H]1O[C@](C)(O)[C@H](C)NC1CC(N)=O)[C@@H]1Cc2cccc(O)c2C(=O)O1` (some centres undefined), the inhibition of growth at 50 µM in series [10] is 7%.
In the case of `CC1(C)CCc2c(cc(O)c3c2CC(CO)OC3=O)O1` (centres undefined), in [11], the inhibition at 20 µM turned out to be 33.8%.
In the case of `CC(C)C[C@H](NC(=O)[C@@H](O)[C@@H](O)[C@@H](N)CC(=O)O)[C@@H]1Cc2cccc(O)c2C(=O)O1`, the Activity in [1] came out at 100%.
With `C[C@H](O)C/C=C/CCCCC1Cc2cc(O)cc(O)c2C(=O)O1` (some centres undefined), the results for the IC50 in [12] and in series [13] were 12.3 µM and 21.7 µM, respectively.
`COc1cc2c(OC)c3cc(C)oc(=O)c3c(O)c2c(O)c1-c1c(OC)cc2c(OC)c3cc(C)oc(=O)c3c(O)c2c1O` came in with a Ki in [14] of 22.9 µM.
For the molecule `C/C=C/CC[C@H]1OC(=O)c2c(O)c(CC=C(C)C)cc(O)c2[C@H]1OC`, the selectivity ratio in series [15] is over 15.
Take `CC(C)C[C@H](NC(=O)[C@@H](O)[C@H]1OC(=O)C[C@@H]1N)[C@@H]1Cc2cccc(O)c2C(=O)O1`: the Activity in [1] was determined as 83%.
In the case of `CC[C@@H]1Cc2cc(O)cc(O)c2C(=O)O1`, the IC50 in series [8] stood at 6.41 µM; in series [9], 6.67 µM.
As for `CC(C)C[C@H](NC(=O)[C@@H](O)[C@H]1O[C@](C)(O)[C@@]2(C)NC(=O)C[C@@H]1N2)[C@@H]1Cc2cccc(O)c2C(=O)O1`, the inhibition of growth at 50 µM in [10] was 82%.
Turning to `COc1cc(OC)c2c(c1CC=C(C)C)C[C@@H](C)OC2=O`, the inhibition at 20 µM in [11] is 28.6%. Also, the values for the IC50 in series [16] and in series [17] were 4 µM and 3.8 µM, respectively.
As to `Cc1c(O)cc2c(c1O)C(=O)O[C@H](CO)C2`, the IC50 was found to be 6.41 µM in series [8] and 6.67 µM in series [9].
For `Cc1c(O)cc2c(c1O)C(=O)O[C@H](C)C2`, the IC50 was found to be 6.41 µM in [8] and 6.67 µM in series [9].
Consider `CCCCC[C@H]1OC(=O)c2c(O)c(CC=C(C)C)cc(O)c2[C@H]1OC`, for which the selectivity ratio in series [15] was over 15.
On to `COc1c(O)c(-c2c(O)c(OC)c(O)c3c(=O)oc(C)cc23)c2cc(C)oc(=O)c2c1O`, for which the IC50 in series [18] was determined as 24.4 µg/mL (≈ 55.2 µM); in series [19], 8.31 µg/mL (≈ 18.8 µM); in [20], 24.4 µg/mL (≈ 55.2 µM); in series [21], 8.31 µg/mL (≈ 18.8 µM).
Take `COc1cc2c(c3c1OC(C)(C)CC3=O)C[C@@H](C)OC2=O`: in series [11], the inhibition at 20 µM turned out to be 28.6%. Besides, the IC50 amounted to 4 µM in [16] and 3.8 µM in [17].
`COC1=C(c2c(OC)cc3c(c2O)C(=O)C2=C(C[C@H](C)OC2=O)C3=O)C(=O)c2c(O)c3c(c(O)c2C1=O)C[C@H](C)OC3=O`: the values for the Ki in series [14] and in [22] were 22.9 µM and 12.2 µM, respectively.
In the case of `CC(=O)Cc1cc2c(CCCO)cc(O)cc2c(=O)o1`, the inhibition at 20 µM in series [2] stood at 28.4%. Also, the IC50 in series [3], in series [4], in series [5], in [6] and in [7] was 2.8 µM in each case.
Molecule `CCCC1Cc2cc(O)c(Br)c(O)c2C(=O)O1` (centres undefined) gave an IC50 in series [23] of 0.19 µg/mL.
In [24], `CC[C@H](N)[C@H](O)[C@H](O)CC(=O)N[C@@H](CC(C)C)[C@@H]1Cc2cccc(O)c2C(=O)O1` registered an MIC of 12 µM (≈ 4.9 µg/mL). Further, 15 µM corresponded to half-maximal inhibition in [23] (IC50).
For the molecule `COc1c(O)cc2c(c1CC=C(C)C)C[C@@H](C)OC2=O`, in series [11], the inhibition at 20 µM came to 28.6%. For the same molecule, the IC50 in [16] came out at 4 µM; in series [17], 3.8 µM.
